Test results: article PMC9189214 (Poultry Science, 2022)

Columns and labels:
[1] = Cell viability used to select the allicin concentration; assay type: cell-based; conditions: dog, MDCK-chAbcb1 or MDCK-chAbcg2 cells
[2] = Pharmacokinetic analyses of sulfadiazine and florfenicol in broilers; assay type: in vivo; conditions: florfenicol 20 mg/kg oral, 4-wk broilers
[3] = tested on: chicken BCRP; test: Bidirectional transport experiment in MDCK-chAbcg2 cells; assay type: in vitro ADME; conditions: net efflux ratio (NER), florfenicol 20 μM, without allicin

| SMILES | viability at 5 μM [1] | CLz ([2]; Allicin (32 mg/kg) for 4 wk) | Vz ([2]; Allicin (32 mg/kg) for 4 wk) | CLz ([2]; Control (no allicin)) | Vz ([2]; Control (no allicin)) | efflux ratio at 20 μM [3] |
| --- | --- | --- | --- | --- | --- | --- |
| C=CCS[S+]([O-])CC=C (stereo not drawn) [allicin, Allicin] | > 90% | – | – | – | – | – |
| CS(=O)(=O)c1ccc([C@@H](O)[C@@H](CF)NC(=O)C(Cl)Cl)cc1 [florfenicol] | – | 18.8 ± 8 mL/min/kg | 7.61 ± 2.89 L/kg | 25.2 ± 8.17 mL/min/kg | 8.57 ± 3.90 L/kg | > 2 |
